The values that follow come from US5840684A, “Glycopeptide antibiotic derivatives” (Eli Lilly and Company, priority 1995, dated 1998).

The test system of test [1] is Staphylococcus aureus S13E. It counts as cell-based. On the procedure:
(§1) The MIC's were determined using a standard broth micro-dilution assay.

Test [2] relates to Staphylococcus aureus SA1199B. It counts as cell-based. The method, then: as §1
Test [3] has as its system vancomycin-resistant enterococci. The test can be described thus: broth micro-dilution, mean geometric MIC. Particulars: enterococci, 24-hour incubation. The format is cell-based, Enterococcus faecium and Enterococcus faecalis. In general terms: In broth dilution the organism is exposed to a series of concentrations in liquid medium.
Test [4] deals with vancomycin-susceptible enterococci. Put plainly: broth micro-dilution, mean geometric MIC. The format is cell-based, Enterococcus faecium and Enterococcus faecalis. Particulars: enterococci, 24-hour incubation.
For test [5], the system named is Staphylococcus epidermidis 270. Put plainly: broth micro-dilution MIC. It counts as cell-based. On the procedure:
(§2) The formula I compounds have in vitro and in vivo activity against Gram-positive pathogenic bacteria. The MIC's were determined using a standard broth micro-dilution assay.

Test [6] has as its system Haemophilus influenzae RD. The test can be described thus: broth micro-dilution MIC. It counts as cell-based. Particulars: Haemophilus influenzae RD. On the procedure: as §2
The test system of another test is Entercoccus faecium 2041. The test can be described thus: broth micro-dilution MIC. It counts as cell-based. The conditions noted are these: Entercoccus faecium 2041. The method, then: as §2
The test system of test [7] is Streptococcus pneumoniae P1. The test can be described thus: broth micro-dilution MIC. It counts as cell-based. The method, then:
as §2

Test [8] deals with Enterococcus gallinarum 245. Put plainly: broth micro-dilution MIC. Particulars: Enterococcus gallinarum 245. The format is cell-based. On the procedure: as §2
In test [9] the test system is Staphylococcus haemolyticus 105. Put plainly: broth micro-dilution MIC. It counts as cell-based. On the procedure: as §2
Test [10] deals with Staphylococcus haemolyticus 415. The test can be described thus: broth micro-dilution MIC. The format is cell-based. The method, then: as §2
In another test the test system is Escherichia coli EC14. Put plainly: broth micro-dilution MIC. The format is cell-based. On the procedure:
as §2

Another test has as its system Entercoccus faecium 180. The test can be described thus: broth micro-dilution MIC. The conditions noted are these: Entercoccus faecium 180. The format is cell-based. On the procedure: as §2
The test system of test [11] is Staphylococcus aureus 491. The test can be described thus: broth micro-dilution MIC. It counts as cell-based. On the procedure: as §1
Test [12] deals with Entercoccus faecium 180-1. The test can be described thus: broth micro-dilution MIC. It counts as cell-based. The method, then:
as §1

The next test relates to Entercoccus faecium 276. The test can be described thus: broth micro-dilution MIC. It counts as cell-based. On the procedure:
as §1

For test [13], the system named is Staphylococcus aureus X778. Put plainly: broth micro-dilution MIC. The format is cell-based. The method, then:
as §1

Test [14] deals with Staphylococcus aureus 489. Put plainly: broth micro-dilution MIC. It counts as cell-based. On the procedure:
as §1

The subject of test [15] is Streptococcus pyogenes C203. The test can be described thus: broth micro-dilution MIC. The format is cell-based. The method, then:
as §1

Test [16] has as its system Staphylococcus aureus SA1199A. Put plainly: broth micro-dilution MIC. It counts as cell-based. The method, then:
as §1

Test [17] concerns Staphylococcus aureus 446. Put plainly: broth micro-dilution MIC. It counts as cell-based. On the procedure: as §1
Test [18] deals with Staphylococcus aureus X400. The test can be described thus: broth micro-dilution MIC. The format is cell-based. On the procedure: as §1
Test [19] relates to Staphylococcus aureus 447. The test can be described thus: broth micro-dilution MIC. It counts as cell-based. The method, then:
as §1

For test [20], the system named is Staphylococcus aureus SA1199. The test can be described thus: broth micro-dilution MIC. It counts as cell-based. On the procedure: as §1

Converted amounts (≈) assume the structure as drawn. Bounds are passed on as bounds.

As to `CNC(CC(C)C)C(=O)NC1C(=O)NC(CC(N)=O)C(=O)NC2C(=O)NC3C(=O)NC(C(=O)NC(C(=O)O)c4cc(O)cc(O)c4-c4cc3ccc4O)C(OC3CC(C)(N)C(O)C(C)O3)c3ccc(c(Cl)c3)Oc3cc2cc(c3OC2OC(CO)C(O)C(O)C2OC2CC(C)(NCc3c4ccccc4c(Cl)c4ccccc34)C(O)C(C)O2)Oc2ccc(cc2Cl)C1O` (centres unmarked) [Compound 18], the MIC in test [1] was 1 µg/mL (≈ 0.55 µM); in [2], 2 µg/mL (≈ 1.1 µM); in [5], 8 µg/mL (≈ 4.4 µM); in test [6] it was 16 µg/mL (≈ 8.81 µM); with Entercoccus faecium 2041, 0.25 µg/mL (≈ 0.138 µM); in test [7], no more than 0.06 µg/mL. Moreover, the MIC in test [8] is 1 µg/mL (≈ 0.55 µM); in test [9], 16 µg/mL (≈ 8.81 µM); in test [10], 8 µg/mL (≈ 4.4 µM); in the test on Escherichia coli EC14, greater than 64 µg/mL; in the test on Entercoccus faecium 180, 2 µg/mL (≈ 1.1 µM); in test [11], 2 µg/mL (≈ 1.1 µM). The MIC was no more than 0.06 µg/mL in test [12]; 1 µg/mL (≈ 0.55 µM) in the test on Entercoccus faecium 276; 0.5 µg/mL (≈ 0.275 µM) in [13]; 1 µg/mL (≈ 0.55 µM) in test [14]; no more than 0.06 µg/mL in test [15]; no more than 0.06 µg/mL in test [16]. Also, the MIC in test [17] worked out at 2 µg/mL (≈ 1.1 µM); in test [18], 1 µg/mL (≈ 0.55 µM); in [19] it was 8 µg/mL (≈ 4.4 µM). Further, the “mean geometric MIC, Vancomycin Resistant Strains” value in test [3] amounted to 6.7 µg/mL. Moreover, the “mean geometric MIC, Vancomycin Sensitive Strains” value in test [4] stood at 0.38 µg/mL.

As for `CNC(CC(C)C)C(=O)NC1C(=O)NC(CC(N)=O)C(=O)NC2C(=O)NC3C(=O)NC(C(=O)NC(C(=O)O)c4cc(O)cc(O)c4-c4cc3ccc4O)C(OC3CC(C)(N)C(O)C(C)O3)c3ccc(c(Cl)c3)Oc3cc2cc(c3OC2OC(CO)C(O)C(O)C2OC2CC(C)(NCc3ccc4ccccc4n3)C(O)C(C)O2)Oc2ccc(cc2Cl)C1O` (centres unmarked) [Compound 30], the MIC in test [1] was 0.125 µg/mL (≈ 0.0721 µM); in [2] it was 0.125 µg/mL (≈ 0.0721 µM); in test [5], 2 µg/mL (≈ 1.15 µM); in [6], greater than 64 µg/mL; with Entercoccus faecium 2041, no more than 0.06 µg/mL; in test [8], no more than 0.06 µg/mL. Also, the MIC is 4 µg/mL (≈ 2.31 µM) in [9]; greater than 64 µg/mL against Escherichia coli EC14; 2 µg/mL (≈ 1.15 µM) in the test with Entercoccus faecium 180; 0.5 µg/mL (≈ 0.288 µM) in test [11]; no more than 0.06 µg/mL in test [12]; 0.25 µg/mL (≈ 0.144 µM) with Entercoccus faecium 276. Also, the MIC in test [13] was no more than 0.06 µg/mL; in test [14], 0.125 µg/mL (≈ 0.0721 µM); in [17] it was 1 µg/mL (≈ 0.577 µM); in test [20], 0.5 µg/mL (≈ 0.288 µM); in test [18], no more than 0.06 µg/mL; in test [19] it was 2 µg/mL (≈ 1.15 µM). Moreover, the “mean geometric MIC, Vancomycin Resistant Strains” value in test [3] was 4.7 µg/mL. For the same compound, the “mean geometric MIC, Vancomycin Sensitive Strains” value in test [4] stood at 0.071 µg/mL.

Consider `CNC(CC(C)C)C(=O)NC1C(=O)NC(CC(N)=O)C(=O)NC2C(=O)NC3C(=O)NC(C(=O)NC(C(=O)O)c4cc(O)cc(O)c4-c4cc3ccc4O)C(OC3CC(C)(N)C(O)C(C)O3)c3ccc(c(Cl)c3)Oc3cc2cc(c3OC2OC(CO)C(O)C(O)C2OC2CC(C)(NCc3ccccn3)C(O)C(C)O2)Oc2ccc(cc2Cl)C1O` (centres unmarked) [Compound 31], for which the “mean geometric MIC, Vancomycin Resistant Strains” value in test [3] was determined as 9.5 µg/mL. Also, the “mean geometric MIC, Vancomycin Sensitive Strains” value in [4] stood at 1.2 µg/mL. Also, the MIC was 1 µg/mL (≈ 0.594 µM) in [5]; greater than 64 µg/mL in test [6]; 4 µg/mL (≈ 2.38 µM) in test [9]; greater than 64 µg/mL in the test on Escherichia coli EC14; 4 µg/mL (≈ 2.38 µM) against Entercoccus faecium 180; 0.5 µg/mL (≈ 0.297 µM) in test [11]. The MIC is no more than 0.06 µg/mL in test [12], no more than 0.06 µg/mL in test [14], 0.5 µg/mL (≈ 0.297 µM) in test [17] and 0.5 µg/mL (≈ 0.297 µM) in [19].

On to `CNC(CC(C)C)C(=O)NC1C(=O)NC(CC(N)=O)C(=O)NC2C(=O)NC3C(=O)NC(C(=O)NC(C(=O)O)c4cc(O)cc(O)c4-c4cc3ccc4O)C(OC3CC(C)(N)C(O)C(C)O3)c3ccc(c(Cl)c3)Oc3cc2cc(c3OC2OC(CO)C(O)C(O)C2OC2CC(C)(NCC3CCCCC3)C(O)C(C)O2)Oc2ccc(cc2Cl)C1O` (centres unmarked) [Compound 161], for which the MIC was 0.125 µg/mL (≈ 0.074 µM) in test [1]; 0.25 µg/mL (≈ 0.148 µM) in test [2]; 1 µg/mL (≈ 0.592 µM) in [5]; no more than 0.06 µg/mL with Entercoccus faecium 2041; no more than 0.06 µg/mL in [7]; 8 µg/mL (≈ 4.74 µM) in test [8]. Further, the MIC was 4 µg/mL (≈ 2.37 µM) in test [9]; 8 µg/mL (≈ 4.74 µM) in test [10]; greater than 64 µg/mL in the test on Escherichia coli EC14; 2 µg/mL (≈ 1.18 µM) in the test on Entercoccus faecium 180; 0.5 µg/mL (≈ 0.296 µM) in test [11]; no more than 0.06 µg/mL in test [12]. Further, the MIC was 0.125 µg/mL (≈ 0.074 µM) against Entercoccus faecium 276; 0.5 µg/mL (≈ 0.296 µM) in test [13]; no more than 0.06 µg/mL in [14]; no more than 0.06 µg/mL in [15]; no more than 0.06 µg/mL in test [16]; 0.5 µg/mL (≈ 0.296 µM) in test [17]. Besides, the figures for the MIC in [20], in test [18] and in test [19] were 0.25 µg/mL (≈ 0.148 µM), 0.5 µg/mL (≈ 0.296 µM) and 1 µg/mL (≈ 0.592 µM), respectively. Also, the “mean geometric MIC, Vancomycin Resistant Strains” value in [3] is 23 µg/mL. For the same compound, in test [4], the “mean geometric MIC, Vancomycin Sensitive Strains” value amounted to 0.44 µg/mL.

For `CNC(CC(C)C)C(=O)NC1C(=O)NC(CC(N)=O)C(=O)NC2C(=O)NC3C(=O)NC(C(=O)NC(C(=O)O)c4cc(O)cc(O)c4-c4cc3ccc4O)C(OC3CC(C)(NCc4ccc5c(c4)Cc4ccccc4-5)C(O)C(C)O3)c3ccc(c(Cl)c3)Oc3cc2cc(c3OC2OC(CO)C(O)C(O)C2OC2CC(C)(NCc3ccc4c(c3)Cc3ccccc3-4)C(O)C(C)O2)Oc2ccc(cc2Cl)C1O` (centres unmarked) [Compound 279], the MIC is 0.25 µg/mL (≈ 0.128 µM) in test [1]; no more than 0.06 µg/mL in [2]; 1 µg/mL (≈ 0.513 µM) in test [5]; greater than 64 µg/mL in [6]; no more than 0.06 µg/mL with Entercoccus faecium 2041; no more than 0.06 µg/mL in [7]. The MIC was 2 µg/mL (≈ 1.03 µM) in [8]; 4 µg/mL (≈ 2.05 µM) in [9]; 2 µg/mL (≈ 1.03 µM) in [10]; greater than 64 µg/mL with Escherichia coli EC14; no more than 0.06 µg/mL in the test on Entercoccus faecium 180; 0.25 µg/mL (≈ 0.128 µM) in test [11]. For the same compound, the MIC in test [12] was no more than 0.06 µg/mL; in the test on Entercoccus faecium 276, 0.125 µg/mL (≈ 0.0641 µM); in test [13] it was 0.25 µg/mL (≈ 0.128 µM); in [15], no more than 0.06 µg/mL; in test [16], no more than 0.06 µg/mL; in test [17], 0.5 µg/mL (≈ 0.257 µM). The values for the MIC in test [20], in test [18] and in test [19] were 0.5 µg/mL (≈ 0.257 µM), 0.25 µg/mL (≈ 0.128 µM) and 1 µg/mL (≈ 0.513 µM), respectively. The “mean geometric MIC, Vancomycin Resistant Strains” value in test [3] worked out at 2.4 µg/mL. For the same compound, the “mean geometric MIC, Vancomycin Sensitive Strains” value in test [4] was 0.11 µg/mL.
